These results are taken from patent publication US8163771B2, “11 β-HSD1 modulators” (Exelixis, Inc., priority 2008, dated 2012).

For the test, the target named is T1, recombinant human 11 β-HSD1 (Homo sapiens, UniProt P28845).
T1 construct: made in house; host or cells: E. coli
Description: 11 β-HSD1 SPA Assay (Scintillation Proximity Assay). It is filed as biochemical. In short, it runs like this:
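E. coli-expressed human enzyme (30-100 nM) with tritiated cortisone 40 nM and NADPH 1 mM in HEPES buffer pH7.4, 2 hours at room temperature. Stopped with protein A SPA beads carrying anti-cortisol antibody and glycyrrhetinic acid; counted after overnight incubation. IC50 from percent inhibition between no-enzyme and no-compound signals.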

T1 sequence (P28845 whole entry): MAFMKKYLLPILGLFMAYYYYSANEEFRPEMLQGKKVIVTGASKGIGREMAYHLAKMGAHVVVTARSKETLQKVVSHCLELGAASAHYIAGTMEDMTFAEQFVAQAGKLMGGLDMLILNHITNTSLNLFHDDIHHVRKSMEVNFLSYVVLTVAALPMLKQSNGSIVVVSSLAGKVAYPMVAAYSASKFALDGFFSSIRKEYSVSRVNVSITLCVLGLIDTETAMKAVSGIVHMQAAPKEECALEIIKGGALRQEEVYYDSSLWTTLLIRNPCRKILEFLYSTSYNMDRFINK

In general, IC50 refers to the concentration that inhibits the measured activity by half. In the case of `CC(C)(Oc1ccc(Cl)cc1S(C)(=O)=O)C(=O)N[C@H]1C[C@H]2CC[C@@H](C1)N2c1ccc(S(C)(=O)=O)cn1` [Example 324, 2-{[4-chloro-2-(methylsulfonyl)phenyl]oxy}-2-methyl-N-{8-[5-(methylsulfonyl)pyridin-2-yl]-8-azabicyclo[3.2.1]oct-3-endo-yl}propanamide], the 50% inhibitory concentration (IC50) was below 2000 nM.
The same measure for `CC(C)(Oc1ncc(Cl)cc1C(F)(F)F)C(=O)N[C@H]1C[C@H]2CC[C@@H](C1)N2c1ccc(S(C)(=O)=O)cc1` [Example 325, 2-{[5-chloro-3-(trifluoromethyl)pyridin-2-yl]oxy}-2-methyl-N-{8-[4-(methylsulfonyl)phenyl]-8-azabicyclo[3.2.1]oct-3-endo-yl}propanamide]: below 200 nM; for `CC(C)(Oc1ccccc1S(C)(=O)=O)C(=O)N[C@H]1C[C@H]2CC[C@@H](C1)N2c1ccc(C(N)=O)cn1` [Example 326, 6-{3-endo-[(2-methyl-2-{[2-(methylsulfonyl)phenyl]oxy}propanoyl)amino]-8-azabicyclo[3.2.1]oct-8-yl}pyridine-3-carboxamide]: below 200 nM; for `CC(C)(Oc1ccc(Cl)cc1Cl)C(=O)N[C@H]1C[C@H]2CC[C@@H](C1)N2C(=O)c1cccc(C(N)=O)c1` [Example 327, 3-{[3-endo-({2-[(2,4-dichlorophenyl)oxy]-2-methylpropanoyl)amino)-8-azabicyclo[3.2.1]oct-8-yl]carbonyl}benzamide]: below 2000 nM.
Consider `CC(C)(Sc1ccc(Cl)cc1Cl)C(=O)N[C@H]1C[C@H]2CC[C@@H](C1)N2c1ccc(S(C)(=O)=O)cn1` [Example 328, 2-[(2,4-dichlorophenyl)thio]-2-methyl-N-{8-[5-(methylsulfonyl)pyridin-2-yl]-8-azabicyclo[3.2.1]oct-3-endo-yl}propanamide], for which the IC50 is below 200 nM.
On to `CC(C)(Oc1ccc(Cl)c(Cl)c1)C(=O)N[C@H]1C[C@H]2CC[C@@H](C1)N2c1ccc(NS(C)(=O)=O)cc1` [Example 329, 2-[(3,4-dichlorophenyl)oxy]-2-methyl-N-(8-{4-[(methylsulfonyl)amino]phenyl}-8-azabicyclo[3.2.1]oct-3-endo-yl)propanamide], for which the half-maximal inhibitory concentration (IC50) was below 200 nM.
Consider `CC(C)(Oc1ccc(F)cc1Cl)C(=O)N[C@H]1C[C@H]2CC[C@@H](C1)N2c1ccc(-c2nc(C(F)(F)F)n[nH]2)cn1` [Example 330, 2-[(2-chloro-4-fluorophenyl)oxy]-2-methyl-N-(8-{5-[3-(trifluoromethyl)-1H-1,2,4-triazol-5-yl]pyridin-2-yl}-8-azabicyclo[3.2.1]oct-3-endo-yl)propanamide], for which the IC50 was below 2000 nM.
As to `CC(C)c1cc(Cl)ccc1OC(C)(C)C(=O)N[C@H]1C[C@H]2CC[C@@H](C1)N2c1ccc(C(N)=O)cn1` [Example 331, 6-{3-endo-[(2-{[4-chloro-2-(1-methylethyl)phenyl]oxy}-2-methylpropanoyl)amino]-8-azabicyclo[3.2.1]oct-8-yl}pyridine-3-carboxamide], the IC50 was below 200 nM.
`CS(=O)(=O)c1ccc(N2[C@@H]3CC[C@H]2C[C@@H](NC(=O)C2(c4ccc(F)c(Cl)c4)CC2)C3)nc1` [Example 332, 1-(3-chloro-4-fluorophenyl)-N-{8-[5-(methylsulfonyl)pyridin-2-yl]-8-azabicyclo[3.2.1]oct-3-endo-yl}cyclopropanecarboxamide]: the IC50 was below 200 nM.
In the case of `CC(C)(Oc1ccc(Cl)cc1C(F)(F)F)C(=O)N[C@H]1C[C@H]2CC[C@@H](C1)N2c1ccc(NS(C)(=O)=O)cn1` [Example 333, 2-{[4-chloro-2-(trifluoromethyl)phenyl]oxy}-2-methyl-N-(8-{5-[(methylsulfonyl)amino]pyridin-2-yl}-8-azabicyclo[3.2.1]oct-3-endo-yl)propanamide], the IC50 is below 200 nM.
Consider `CC(C)(Oc1ccc(Cl)cc1S(C)(=O)=O)C(=O)N[C@H]1C[C@H]2CC[C@@H](C1)N2c1ccc(C(N)=O)cn1` [Example 334, 6-{3-endo-[(2-{[4-chloro-2-(methylsulfonyl)phenyl]oxy}-2-methylpropanoyl)amino]-8-azabicyclo[3.2.1]oct-8-yl}pyridine-3-carboxamide], for which the IC50 is below 200 nM.
Turning to `CC(C)(Oc1cc(C(F)(F)F)ccc1F)C(=O)N[C@H]1C[C@H]2CC[C@@H](C1)N2c1ccc(S(C)(=O)=O)cn1` [Example 335, 2-{[2-fluoro-5-(trifluoromethyl)phenyl]oxy}-2-methyl-N-{8-[5-(methylsulfonyl)pyridin-2-yl]-8-azabicyclo[3.2.1]oct-3-endo-yl}propanamide], the IC50 was below 2000 nM.
As to `CC(C)(O)CNC(=O)c1ccc(N2[C@@H]3CC[C@H]2C[C@@H](NC(=O)C(C)(C)Oc2cc(C(C)(C)O)c(Cl)cc2Cl)C3)nc1` [Example 336, 6-[3-endo-({2-[2,4-dichloro-5-(2-hydroxypropan-2-yl)phenoxy]-2-methylpropanoyl}amino)-8-azabicyclo[3.2.1]oct-8-yl]-N-(2-hydroxy-2-methylpropyl)pyridine-3-carboxamide], the IC50 is below 200 nM.
Consider `CC(C)(Oc1ccc(Cl)cc1Br)C(=O)N[C@H]1C[C@H]2CC[C@@H](C1)N2c1ccc(C(=O)NCC(F)(F)F)cn1` [Example 337, 6-(3-endo-{[2-(2-bromo-4-chlorophenoxy)-2-methylpropanoyl]amino}-8-azabicyclo[3.2.1]oct-8-yl)-N-(2,2,2-trifluoroethyl)pyridine-3-carboxamide], for which the IC50 is below 200 nM.
For `CC(C)(Oc1ccc2ccccc2c1)C(=O)N[C@H]1C[C@H]2CC[C@@H](C1)N2c1ccc(C(=O)NCC(F)(F)F)cn1` [Example 338, 6-(3-endo-{[2-methyl-2-(naphthalen-2-yloxy)propanoyl]amino}-8-azabicyclo[3.2.1]oct-8-yl)-N-(2,2,2-trifluoroethyl)pyridine-3-carboxamide] the value was below 200 nM; for `CC(C)(Oc1nccc2ccccc12)C(=O)N[C@H]1C[C@H]2CC[C@@H](C1)N2c1ccc(C(N)=O)cn1` [Example 339, 6-(3-endo-{[2-(isoquinolin-1-yloxy)-2-methylpropanoyl]amino}-8-azabicyclo[3.2.1]oct-8-yl)pyridine-3-carboxamide], below 200 nM; for `CC(C)(Oc1ccc(Cl)cc1Cl)C(=O)N[C@H]1C[C@H]2CC[C@@H](C1)N2c1ccc(C(=O)NCCN2CCCC2)cn1` [Example 340, 6-(3-endo-{[2-(2,4-dichlorophenoxy)-2-methylpropanoyl]amino}-8-azabicyclo[3.2.1]oct-8-yl)-N-[2-(pyrrolidin-1-yl)ethyl]pyridine-3-carboxamide], below 200 nM.
As to `CC(C)(Oc1ccc(Cl)cc1Cl)C(=O)N[C@H]1C[C@H]2CC[C@@H](C1)N2c1ccc(C(=O)NCCCn2ccnc2)cn1` [Example 341, 6-(3-endo-{[2-(2,4-dichlorophenoxy)-2-methylpropanoyl]amino}-8-azabicyclo[3.2.1]oct-8-yl)-N-[3-(1h-imidazol-1-yl)propyl]pyridine-3-carboxamide], the IC50 was below 200 nM.
On to `CC(C)(Oc1ccc(Cl)cc1Cl)C(=O)N[C@H]1C[C@H]2CC[C@@H](C1)N2c1ccc(C(=O)NCc2ccncc2)cn1` [Example 342, 6-(3-endo-{[2-(2,4-dichlorophenoxy)-2-methylpropanoyl]amino}-8-azabicyclo[3.2.1]oct-8-yl)-N-(pyridin-4-ylmethyl)pyridine-3-carboxamide], for which the IC50 was below 200 nM.
With `CC(C)(Oc1ccc(Cl)cc1C(F)(F)F)C(=O)N[C@H]1C[C@H]2CC[C@@H](C1)N2c1ccc(C(=O)NCC(F)F)cn1` [Example 343, 6-[3-endo-({2-[4-chloro-2-(trifluoromethyl)phenoxy]-2-methylpropanoyl}amino)-8-azabicyclo[3.2.1]oct-8-yl]-N-(2,2-difluoroethyl)pyridine-3-carboxamide], the IC50 was below 200 nM.
For the compound `CC(C)(Oc1cc(-c2ccccc2)ccc1Cl)C(=O)N[C@H]1C[C@H]2CC[C@@H](C1)N2c1ccc(C(N)=O)cn1` [Example 344, 6-[3-endo-({2-[(4-chlorobiphenyl-3-yl)oxy]-2-methylpropanoyl}amino)-8-azabicyclo[3.2.1]oct-8-yl]pyridine-3-carboxamide], the IC50 was below 200 nM.
As to `CC(C)(Oc1ccc(Cl)cc1C(F)(F)F)C(=O)NC1CC2CCC(C1)N2c1ccc(C(=O)NC2CC2(F)F)cn1` (stereo not drawn) [Example 345, 6-[3-endo-({2-[4-chloro-2-(trifluoromethyl)phenoxy]-2-methylpropanoyl}amino)-8-azabicyclo[3.2.1]oct-8-yl]-N-(2,2-difluorocyclopropyl)pyridine-3-carboxamide], the half-maximal inhibitory concentration (IC50) is below 200 nM.
Consider `CC(C)(Oc1cc(-c2ccc(F)cc2)ccc1Cl)C(=O)N[C@H]1C[C@H]2CC[C@@H](C1)N2c1ccc(C(N)=O)cn1` [Example 346, 6-[3-endo-({2-[(4-chloro-4′-fluorobiphenyl-3-yl)oxy]-2-methylpropanoyl}amino)-8-azabicyclo[3.2.1]oct-8-yl]pyridine-3-carboxamide], for which the IC50 was below 200 nM.
`CC(C)(Oc1ccccc1OC(F)(F)F)C(=O)N[C@H]1C[C@H]2CC[C@@H](C1)N2c1ccc(C(=O)NCC(F)(F)F)cn1` [Example 347, 6-[3-endo-({2-methyl-2-[2-(trifluoromethoxy)phenoxy]propanoyl}amino)-8-azabicyclo[3.2.1]oct-8-yl]-N-(2,2,2-trifluoroethyl)pyridine-3-carboxamide]: the IC50 was below 200 nM.
For `CC(C)(Oc1ccc2ccccc2c1Cl)C(=O)N[C@H]1C[C@H]2CC[C@@H](C1)N2c1ccc(C(=O)NCC(F)(F)F)cn1` [Example 348, 6-[3-endo-({2-[(1-chloronaphthalen-2-yl)oxy]-2-methylpropanoyl}amino)-8-azabicyclo[3.2.1]oct-8-yl]-N-(2,2,2-trifluoroethyl)pyridine-3-carboxamide], the IC50 was below 200 nM.
As for `CC(C)(Oc1ccc(F)cc1Cl)C(=O)NC1CC2CCC(C1)N2c1ccc(C(=O)NC2CC2(F)F)cn1` (stereo not drawn) [Example 349, 6-(3-endo-{[2-(2-chloro-4-fluorophenoxy)-2-methylpropanoyl]amino}-8-azabicyclo[3.2.1]oct-8-yl)-N-(2,2-difluorocyclopropyl)pyridine-3-carboxamide], the IC50 is below 200 nM.
